Test results published in patent US11446353B2, “Compositions and methods for the treatment of fungal infections” (priority 2014, dated 2022).

How the values were obtained:
[1] = test system: Coccidioides posadasii Δcts2/Δard1/Δcts3; type: cell-based
[2] = test system: Coccidioides posadasii Δcts2/Δard1/Δcts3

CC/C(=C(\c1ccccc1)c1ccc(OCCN(C)C)cc1)c1ccccc1 [Tamoxifen]
hit strength in screen [1]: strong positive hit
fungal growth inhibitory properties [2]: strong fungal growth inhibitory properties
